# Assay results taken from ChEMBL document CHEMBL4266060, “Structure-Property Relationship Studies of Influenza A Virus AM2-S31N Proton Channel Blockers” (ACS Med Chem Lett, 2018).
# The source made the active and inactive calls. The rule behind the calls is not given here.
# Experiments:
# Influenza A virus [1] = format: functional, A/California/07/2009(H1N1), MDCK
# Influenza A virus [2] = experiment: Inhibition of Influenza A virus AM2 expressed in xenopus laevis frog oocytes assessed as inhibition of channel current at 100 uM after 2 mins by two-electrode voltage clamp assay relative to control; format: cell-based
# Influenza A virus [3] = experiment: microbe, parasite or virus in culture; settings: A/California/07/2009(H1N1), MDCK
# Description: Antiviral activity against Influenza A virus (A/California/07/2009(H1N1)) infected in MDCK cells expressing ST6Gal-1 assessed as reduction in plaque formation pretreated with virus for 30 mins followed by viral infection measured after 2 to 3 days by naphthalene black dye based assay
# [4] = Cytotoxicity against MDCK cells after 48 hrs by neutral red uptake assay; format: cell-based, Canis lupus familiaris; settings: dog
# [5] = Intrinsic clearance in mouse liver microsomes at 1 uM in presence of NADPH generating system by LC-MS/MS analysis; format: ADME, microsome; settings: read-out: CLH
# [6] = Half life in mouse liver microsomes at 1 uM in presence of NADPH generating system by LC-MS/MS analysis; format: ADME, microsome
# [7] = Half life in mouse liver microsomes at 0.5 uM; format: ADME, microsome; settings: for half-life at 0.5 µM: liver microsomes
# [8] = Intrinsic clearance in mouse liver microsomes at 0.5 uM; format: ADME, microsome; settings: read-out: CLH
# [9] = Permeability of the compound by PAMPA; format: ADME; settings: read-out: permeability
# [10] = Half life in human liver microsomes at 1 uM in presence of NADPH generating system by LC-MS/MS analysis; format: ADME, microsome
# Influenza A virus [11] = format: functional, organism-based; settings: A/California/07/2009(H1N1), MDCK, 10 uM
# Influenza A virus [12] = format: functional, A/California/07/2009(H1N1), A549
# Influenza A virus [13] = format: functional, A/California/07/2009(H1N1), A549; remark: listed apart in the source
# Influenza A virus [14] = format: functional, A/California/07/2009(H1N1), A549; remark: listed apart in the source
# Influenza A virus [15] = format: functional, organism-based; settings: A/California/07/2009(H1N1), MDCK, 30 nM
# Influenza A virus [16] = format: functional, organism-based; settings: A/California/07/2009(H1N1), MDCK, 30 nM; remark: listed apart in the source
# Influenza A virus [17] = format: functional, organism-based; settings: A/California/07/2009(H1N1), A549, 30 nM
SMILES,Activity (Influenza A virus [1]),inhibition (Influenza A virus [2]),EC50 (Influenza A virus [3]),CC50 at 48 h [4],CLint scaled at 1 µM [5],half-life at 1 µM [6],also measured
c1csc(-c2cc(CNC34CC5CC(CC(C5)C3)C4)no2)c1,0%,,,,,,
COc1ncc(-c2ccc(CNC34CC5CC(CC(O)(C5)C3)C4)s2)cn1,74%,0%,,,,,
OC12CC3CC(C1)CC(NCc1ccc(-c4ccccc4Cl)s1)(C3)C2,20.4%,0%,2.5 µM,65.2 µM,,,
Brc1ccc(CNC23CC4CC(CC(C4)C2)C3)s1,3.2%,77.2%,2.9 µM,123 µM,< 38 mL/min/kg,> 145 min,half-life at 0.5 µM [7]: > 145 min; CLint scaled at 0.5 µM [8]: < 38 mL/min/kg
OC12CC3CC(C1)CC(NCc1nc(Br)cs1)(C3)C2,108%,3.9%,,,,,
c1nc(N2CCCCCC2)ncc1CNC12CC3CC(CC(C3)C1)C2,,,,,,,half-life at 0.5 µM [7]: 0.8 min; CLint scaled at 0.5 µM [8]: 6760 mL/min/kg
OC12CC3CC(C1)CC(NCc1cnc(N4CCCCC4)nc1)(C3)C2,,,,,,,half-life at 0.5 µM [7]: 19.4 min; CLint scaled at 0.5 µM [8]: 283 mL/min/kg
OC12CC3CC(C1)CC(NCc1ccc(N4CCCCCC4)cn1)(C3)C2,,,,,,,half-life at 0.5 µM [7]: 22.1 min; CLint scaled at 0.5 µM [8]: 248 mL/min/kg
OC12CC3CC(C1)CC(NCc1cnc(Br)s1)(C3)C2,102.1%,2.7%,,,,,
OC12CC3CC(C1)CC(NCc1ccc(Br)s1)(C3)C2,3.9%,11.4%,1.1 µM,238 µM,< 38 mL/min/kg,> 145 min,Papp [9]: 25.3 ×10⁻⁶ cm/s; half-life at 1 µM [10]: > 145 min
OC12CC3CC(C1)CC(NCc1ccc(-c4ccc(F)cc4F)s1)(C3)C2,44.1%,0%,,,,,
CSc1ccccc1-c1ccc(CNC23CC4CC(CC(O)(C4)C2)C3)s1,47.7%,0%,,,,,
OC12CC3CC(C1)CC(NCc1ccc(I)s1)(C3)C2,2.5%,3.2%,0.9 µM,317 µM,< 38 mL/min/kg,> 145 min,Activity (Influenza A virus [11]): Active; Activity (Influenza A virus [12]): 2.1 log10PFU/ml; Papp [9]: 20.4 ×10⁻⁶ cm/s; Activity (Influenza A virus [13]): 1.8 log10PFU/ml; Activity (Influenza A virus [14]): 2.9 log10PFU/ml; half-life at 1 µM [10]: > 145 min
OC12CC3CC(C1)CC(NCc1ccc(-c4ccccc4)s1)(C3)C2,27.9%,0.3%,2.1 µM,80.5 µM,,,
OC12CC3CC(C1)CC(NCc1csc(Br)c1)(C3)C2,31.3%,1.9%,5.1 µM,364 µM,,,
COc1ccc(-c2ccc(CNC34CC5CC(CC(O)(C5)C3)C4)s2)cc1OC,67.5%,0%,,,,,
OC12CC3CC(C1)CC(NCc1cc(Br)cs1)(C3)C2,31.4%,6.5%,3.1 µM,381 µM,54.5 mL/min/kg,101 min,
Brc1ccc(CNC23CC4CC(CC(C4)C2)C3)[se]1,0%,56.1%,2.2 µM,82.1 µM,171 mL/min/kg,32.1 min,
COC(=O)c1ccc(-c2ccc(CNC34CC5CC(CC(O)(C5)C3)C4)s2)cc1,52%,0%,,,,,
C[Si](C)(C)c1ccc(CNC23CC4CC(CC(O)(C4)C2)C3)cc1,,,,,,,"t1/2 ([7]; microsomes, 0.5 µM): 4.4 min"
Ic1ccc(CNC23CC4CC(CC(C4)C2)C3)s1,1.8%,91%,1 µM,70.2 µM,224 mL/min/kg,24.5 min,
Brc1ccc(CNC23CCC4CC(CC(C4)C2)C3)s1,0%,86.5%,0.6 µM,43.1 µM,604 mL/min/kg,9.1 min,
COc1ccc(-c2ccc(CNC34CC5CC(CC(O)(C5)C3)C4)s2)cn1,40.5%,0%,,,,,
c1csc(-c2ccc(CNC34CC5CC(CC(C5)C3)C4)s2)c1,58.5%,17.9%,12.2 µM,19.5 µM,1940 mL/min/kg,2.8 min,
CCC(CC)O[C@@H]1C=C(C(=O)O)C[C@H](N)[C@H]1NC(C)=O [OSELTAMIVIR CARBOXYLATE],,,0.0024 µM,> 20 µM,,,Activity (Influenza A virus [15]): inactive; Activity (Influenza A virus [16]): Active; Activity (Influenza A virus [17]): inactive
